Assay results reported in patent US20030032158A1, “Method of modulating the efficiency of translation termination and degradation of aberrant mRNA involving a surveillance complex comprising human Upf1p,eucaryotic release factor 1 and eucaryotic release factor 3” (University of Medicine and Dentistry of New Jersey, priority 1998, published 2003).
“Also recorded” adds a separate entry of the source.

Experiments:
Upf1p-eRF3 interaction = molecular target: T1, Upf1p-eRF3 interaction (Saccharomyces cerevisiae, UniProt P30771); test: GST-eRF3 pull-down of purified FLAG-Upf1p, immunoblot; assay type: binding, yeast; details: 1 mM ATP, 1 mM GTP or 100 μg/ml poly(U) RNA
T1 construct: made in house; host or cells: GST-eRF3: E. coli BL21(DE3) pLysS with pGEX2T-SUP35
T1 sequence (P30771 1-971): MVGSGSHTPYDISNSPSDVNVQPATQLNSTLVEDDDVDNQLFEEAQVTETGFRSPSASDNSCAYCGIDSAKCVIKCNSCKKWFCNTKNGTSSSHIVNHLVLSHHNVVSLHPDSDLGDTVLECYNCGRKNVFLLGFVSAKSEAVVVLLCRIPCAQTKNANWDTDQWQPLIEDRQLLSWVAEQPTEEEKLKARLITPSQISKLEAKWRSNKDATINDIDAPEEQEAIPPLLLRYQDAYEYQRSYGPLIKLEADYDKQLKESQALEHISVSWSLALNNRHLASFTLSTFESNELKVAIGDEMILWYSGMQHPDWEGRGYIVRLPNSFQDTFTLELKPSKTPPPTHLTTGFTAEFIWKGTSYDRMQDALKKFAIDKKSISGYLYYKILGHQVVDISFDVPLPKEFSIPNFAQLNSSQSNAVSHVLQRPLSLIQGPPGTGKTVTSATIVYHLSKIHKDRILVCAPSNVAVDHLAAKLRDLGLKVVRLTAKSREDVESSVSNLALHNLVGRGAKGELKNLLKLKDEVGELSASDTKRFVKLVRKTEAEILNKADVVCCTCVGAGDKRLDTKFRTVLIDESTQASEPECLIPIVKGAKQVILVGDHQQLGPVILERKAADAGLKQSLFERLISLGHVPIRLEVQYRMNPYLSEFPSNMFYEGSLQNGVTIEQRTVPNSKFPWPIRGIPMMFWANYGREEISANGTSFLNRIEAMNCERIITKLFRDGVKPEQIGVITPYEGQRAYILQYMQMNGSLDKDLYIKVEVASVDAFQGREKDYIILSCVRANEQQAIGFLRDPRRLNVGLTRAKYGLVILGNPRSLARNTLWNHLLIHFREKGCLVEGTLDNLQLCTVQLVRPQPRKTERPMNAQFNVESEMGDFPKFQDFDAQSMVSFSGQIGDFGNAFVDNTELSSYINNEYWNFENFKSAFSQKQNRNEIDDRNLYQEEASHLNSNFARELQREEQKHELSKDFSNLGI
Method: FIG. 3. eRF3 and RNA compete for binding to Upf1p. (A) Poly(U) RNA prevents Upf1p from binding to eRF3. Reaction mixtures were prepared as described in FIG. 1B, except that binding was performed in TBSTB (TBST with 100 μg/ml BSA) and reaction mixtures contained 1 mM ATP, 1 mM GTP, or 100 μg/ml poly(U) RNA as indicated above each lane. The reaction mixtures were mixed for 1 hour at 4° C. Following mixing, the complexes were washed as in FIG. 1B with TBSTB containing 1 mM ATP, 1 mM GTP, or 100 μg/ml poly(U) RNA as indicated above each lane. […] Reaction mixtures were prepared as in FIG. 1B, in the presence or absence of […] poly(U) RNA as indicated above each lane. (C) eRF3 inhibits Upf1p RNA binding. A uniformly labeled 32 nt RNA was synthesized by SP6 transcription of SstI digested pGEM5Zf(+). The indicated amounts of GST-eRF3, were incubated with 200 ng Upf1p for 15 minutes at 4° C. 50 fmol of the RNA substrate was added and incubated for 5 minutes. Stop solution was added, and reactions electrophoresed in a 4.5% native PAGE gel (0.5×TBE, 30:0.5 acrylamide:bisacrylamide, with 5% glycerol). […]
Further, purified Flag-Upf1p with poly(U) RNA was incubated in the presence or absence of ATP. […] GST-eRF3 was added to the reaction mixtures and the Upf1-eRF3 interaction was monitored by immunoblotting analysis as before.

[1] = tested on: isogenic wild-type and upf3Δ strains; test: Paromomycin sensitivity, zone of growth inhibition around a disc on a lawn of cells; assay type: cell-based, Saccharomyces cerevisiae
Method: FIG. 11. Paromomycin sensitivity was monitored in isogenic wild-type and upf3Δ strains by placing a disc containing 1 mg of paromomycin onto a lawn of cells and determining the zone of growth inhibition around the disc.
Paromomycin sensitivity was monitored in isogenic wild-type and upf3Δ strains by placing a disc containing 1 mg of paromomycin onto a lawn of cells and determining the zone of growth inhibition around the disc (FIG. 11).

[2] = tested on: isogenic wild-type and upf3Δ strains; details: cells harboring the mof4-1 allele of UPF1; previous results; cited from earlier work
[3] = tested on: −1 ribosomal frameshifting; test: β-galactosidase assay of −1 ribosomal frameshifting with plasmids pF8 / pTI25; assay type: cell-based, Saccharomyces cerevisiae
Method: Killer assays, frameshifting assays and extraction and analysis of total nucleic acids:The killer assay was carried out as previously described (Dinman, J. D., and Wickner, R. B. (1992)) by replica plating colonies onto 4.7 MB plates newly seeded with a lawn of 5×47 killer indicator cells (0.5 ml of a suspension at 1 unit of optical density at 550 nm per ml per plate). After 2 days at 20° C., killer activity was observed as a zone of growth inhibition around the killer colonies. To quantitate loss of killer activity, colonies that had been identified as killer^+ were re-streaked for single colonies and the percentage of killer^− colonies were determined. The efficiencies of −1 frameshifting were determined as previously described (Cui, Y., Dinman, J. D., and Peltz, S. W. (1996); Dinman, J. D., Ruiz-Echevarria, M. J., Czaplinski, K. and Peltz, S. W. (1997b)) using the 0-frame control (pTI25) and −1 reporter (pF8) plasmids.
Methods to measure efficiencies of programmed ribosomal frameshifting in vivo have been described previously (Cui, Y., Dinman, J. D., and Peltz, S. W. (1996); Dinman, J. D., Icho, T., and Wickner, R. B. (1991); Dinman, J. D., Ruiz-Echevarria, M. J., Czaplinski, K. and Peltz, S. W. (1997b)). […] Similarly, the +1 ribosomal frameshift efficiency is calculated based on the pJD104 to pTI25 β-gal ratios. […]

Structure (SMILES) | Effect on interaction between Upf1p and eRF3 (Upf1p-eRF3 interaction) | Paromomycin sensitivity (zone of growth inhibition) ([1]; upf1Δ or upf2Δ strains) | Paromomycin sensitivity (zone of growth inhibition) ([1]; upf3Δ strain vs isogenic wild-type, disc containing 1 mg of paromomycin) | Paromomycin sensitivity [2] | β-galactosidase activity (−1 frameshift reporter) ([3]; upf3Δ cells carrying pF8, liquid media, different concentrations of the drug) | β-galactosidase activity ([3]; wild-type cells containing pF8, or any strain carrying pTI25 (zero frame control))
Nc1ncnc2c1ncn2[C@@H]1O[C@H](COP(=O)(O)OP(=O)(O)OP(=O)(O)O)[C@@H](O)[C@H]1O [ATP] | did not affect the interaction; also recorded: did not prevent association of Upf1p with eRF3 | – | – | – | – | –
Nc1nc2c(ncn2[C@@H]2O[C@H](COP(=O)(O)OP(=O)(O)OP(=O)(O)O)[C@@H](O)[C@H]2O)c(=O)[nH]1 [GTP] | not affected | – | – | – | – | –
NC[C@@H]1O[C@H](O[C@H]2[C@@H](O)[C@H](O[C@@H]3[C@@H](O)[C@H](N)C[C@H](N)[C@H]3O[C@H]3O[C@H](CO)[C@@H](O)[C@H](O)[C@H]3N)O[C@@H]2CO)[C@H](N)[C@@H](O)[C@@H]1O [paromomycin] | – | Neither the upf1Δ or upf2Δ strains demonstrate hypersensitivity | more sensitive to paromomycin than the isogenic wild-type strain | increased sensitivity to paromomycin than the isogenic wild-type strain | increased continuously with increased concentrations of paromomycin | unaffected
